Laboratory results published in ChEMBL document CHEMBL1127385, “Synthesis and diuretic activity of alkyl- and arylguanidine analogs of N,N'-dicyclohexyl-4-morpholinecarboxamidine in rats and dogs” (J Med Chem, 1994).

Experiments:
Rattus norvegicus [1] = experiment: Total electrolytic excretion of sodium in urine of rats after peroral administration of 270 uM/Kg of drug; format: ADME, organism-based; settings: in vivo, po
Rattus norvegicus [2] = experiment: Total electrolytic excretion of potassium in urine of rats after peroral administration of 270 uM/Kg of drug; format: ADME, organism-based; settings: in vivo, po
Rattus norvegicus [3] = experiment: Total electrolytic excretion of chlorine in urine of rats after peroral administration of 80.9 uM/Kg of drug; format: ADME, organism-based; settings: in vivo, po
Rattus norvegicus [4] = experiment: Ratio of Total electrolytic excretion of sodium and potassium in urine of rats after peroral administration of 270 uM/Kg of drug; format: ADME, organism-based; settings: in vivo, po
Rattus norvegicus [5] = experiment: Total electrolytic excretion of sodium in urine of rats after peroral administration of 27 uM/Kg of drug; format: ADME, organism-based; settings: in vivo, po
Rattus norvegicus [6] = experiment: Tested for the diuretic activity by measuring the urinary volume after peroral administering 80.9 uM/Kg of drug in rats; format: ADME, organism-based, Urine; settings: in vivo, po
Rattus norvegicus [7] = experiment: Total electrolytic excretion of chlorine in urine of rats after peroral administration of 27 uM/Kg of drug; format: ADME, organism-based; settings: in vivo, po
Rattus norvegicus [8] = experiment: Ratio of Total electrolytic excretion of sodium and potassium in urine of rats after peroral administration of 27 uM/Kg of drug; format: ADME, organism-based; settings: in vivo, po
Rattus norvegicus [9] = experiment: Tested for the diuretic activity by measuring the urinary volume after peroral administering 270 uM/Kg of drug in rats; format: ADME, organism-based, Urine; settings: in vivo, po
Rattus norvegicus [10] = experiment: Tested for the diuretic activity by measuring the urinary volume after peroral administering 27 uM/Kg of drug in rats; format: ADME, organism-based, Urine; settings: in vivo, po
Rattus norvegicus [11] = experiment: Ratio of Total electrolytic excretion of sodium and potassium in urine of rats after peroral administration of 80.9 uM/Kg of drug; format: ADME, organism-based; settings: in vivo, po
Rattus norvegicus [12] = experiment: Total electrolytic excretion of sodium in urine of rats after peroral administration of 80.9 uM/Kg of drug; format: ADME, organism-based; settings: in vivo, po
Rattus norvegicus [13] = experiment: Total electrolytic excretion of potassium in urine of rats after peroral administration of 80.9 uM/Kg of drug; format: ADME, organism-based; settings: in vivo, po
Rattus norvegicus [14] = experiment: Total electrolytic excretion of chlorine in urine of rats after peroral administration of 270 uM/Kg of drug; format: ADME, organism-based; settings: in vivo, po
Rattus norvegicus [15] = experiment: Total electrolytic excretion of potassium in urine of rats after peroral administration of 27 uM/Kg of drug; format: ADME, organism-based; settings: in vivo, po
Rattus norvegicus [16] = experiment: Total electrolytic excretion of chlorine in urine of rats after peroral administration of 11.3 uM/Kg of drug; format: ADME, organism-based; settings: in vivo, po
Rattus norvegicus [17] = experiment: Total electrolytic excretion of sodium in urine of rats after peroral administration of 0 uM/Kg of drug; format: ADME, organism-based; settings: in vivo, po
Rattus norvegicus [18] = experiment: Total electrolytic excretion of potassium in urine of rats after peroral administration of 11.3 uM/Kg of drug; format: ADME, organism-based; settings: in vivo, po
Rattus norvegicus [19] = experiment: Total electrolytic excretion of sodium in urine of rats after peroral administration of 1.13 uM/Kg of drug; format: ADME, organism-based; settings: in vivo, po
Rattus norvegicus [20] = experiment: Tested for the diuretic activity by measuring the urinary volume after peroral administering 113 uM/Kg of drug in rats; format: ADME, organism-based, Urine; settings: in vivo, po
Rattus norvegicus [21] = experiment: Total electrolytic excretion of chlorine in urine of rats after peroral administration of 113 uM/Kg of drug; format: ADME, organism-based; settings: in vivo, po
Canis familiaris [22] = experiment: Total electrolytic excretion of sodium in urine of dogs after peroral administration of 3.76 uM/Kg of drug; format: ADME, organism-based, Canis lupus familiaris; settings: dog, in vivo, po
Canis familiaris [23] = experiment: Ratio of Total electrolytic excretion of sodium and potassium in urine of dogs after peroral administration of 1.13 uM/Kg of drug; format: ADME, organism-based, Canis lupus familiaris; settings: dog, in vivo, po
Rattus norvegicus [24] = experiment: Total electrolytic excretion of potassium in urine of rats after peroral administration of 1.13 uM/Kg of drug; format: ADME, organism-based; settings: in vivo, po
Canis familiaris [25] = experiment: Ratio of Total electrolytic excretion of sodium and potassium in urine of dogs after peroral administration of 113 uM/Kg of drug; format: ADME, organism-based, Canis lupus familiaris; settings: dog, in vivo, po
Rattus norvegicus [26] = experiment: Total electrolytic excretion of sodium in urine of rats after peroral administration of 3.76 uM/Kg of drug; format: ADME, organism-based; settings: in vivo, po
Rattus norvegicus [27] = experiment: Total electrolytic excretion of potassium in urine of rats after peroral administration of 0 uM/Kg of drug; format: ADME, organism-based; settings: in vivo, po
Canis familiaris [28] = experiment: Total electrolytic excretion of chlorine in urine of dogs after peroral administration of 3.76 uM/Kg of drug; format: ADME, organism-based, Canis lupus familiaris; settings: dog, in vivo, po
Rattus norvegicus [29] = experiment: Tested for the diuretic activity by measuring the urinary volume after peroral administering 11.3 uM/Kg of drug in rats; format: ADME, organism-based, Urine; settings: in vivo, po
Canis familiaris [30] = experiment: Ratio of Total electrolytic excretion of sodium and potassium in urine of dogs after peroral administration of 11.3 uM/Kg of drug; format: ADME, organism-based, Canis lupus familiaris; settings: dog, in vivo, po
Rattus norvegicus [31] = experiment: Total electrolytic excretion of sodium in urine of rats after peroral administration of 11.3 uM/Kg of drug; format: ADME, organism-based; settings: in vivo, po
Rattus norvegicus [32] = experiment: Total electrolytic excretion of potassium in urine of rats after peroral administration of 113 uM/Kg of drug; format: ADME, organism-based; settings: in vivo, po
Rattus norvegicus [33] = experiment: Total electrolytic excretion of chlorine in urine of rats after peroral administration of 37.6 uM/Kg of drug; format: ADME, organism-based; settings: in vivo, po
Rattus norvegicus [34] = experiment: Tested for the diuretic activity by measuring the urinary volume after peroral administering 3.76 uM/Kg of drug in rats; format: ADME, organism-based, Urine; settings: in vivo, po
Canis familiaris [35] = experiment: Ratio of Total electrolytic excretion of sodium and potassium in urine of dogs after peroral administration of 0 uM/Kg of drug; format: ADME, organism-based, Canis lupus familiaris; settings: dog, in vivo, po
Rattus norvegicus [36] = experiment: Tested for the diuretic activity by measuring the urinary volume after peroral administering 37.6 uM/Kg of drug in rats; format: ADME, organism-based, Urine; settings: in vivo, po
Rattus norvegicus [37] = experiment: Tested for the diuretic activity by measuring the urinary volume after peroral administering 1.13 uM/Kg of drug in rats; format: ADME, organism-based, Urine; settings: in vivo, po
Rattus norvegicus [38] = experiment: Total electrolytic excretion of chlorine in urine of rats after peroral administration of 0 uM/Kg of drug; format: ADME, organism-based; settings: in vivo, po
Canis familiaris [39] = experiment: Tested for the diuretic activity by measuring the urinary volume after peroral administering 3.76 uM/Kg of drug in dogs; format: ADME, organism-based, Canis lupus familiaris, Urine; settings: dog, in vivo, po
Rattus norvegicus [40] = experiment: Total electrolytic excretion of chlorine in urine of rats after peroral administration of 3.76 uM/Kg of drug; format: ADME, organism-based; settings: in vivo, po
Canis familiaris [41] = experiment: Ratio of Total electrolytic excretion of sodium and potassium in urine of dogs after peroral administration of 37.6 uM/Kg of drug; format: ADME, organism-based, Canis lupus familiaris; settings: dog, in vivo, po
Rattus norvegicus [42] = experiment: Tested for the diuretic activity by measuring the urinary volume after peroral administering 0 uM/Kg of drug in rats; format: ADME, organism-based, Urine; settings: in vivo, po
Canis familiaris [43] = experiment: Total electrolytic excretion of potassium in urine of dogs after peroral administration of 3.76 uM/Kg of drug; format: ADME, organism-based, Canis lupus familiaris; settings: dog, in vivo, po
Rattus norvegicus [44] = experiment: Total electrolytic excretion of sodium in urine of rats after peroral administration of 37.6 uM/Kg of drug; format: ADME, organism-based; settings: in vivo, po
Rattus norvegicus [45] = experiment: Total electrolytic excretion of potassium in urine of rats after peroral administration of 37.6 uM/Kg of drug; format: ADME, organism-based; settings: in vivo, po
Rattus norvegicus [46] = experiment: Total electrolytic excretion of chlorine in urine of rats after peroral administration of 1.13 uM/Kg of drug; format: ADME, organism-based; settings: in vivo, po
Rattus norvegicus [47] = experiment: Total electrolytic excretion of potassium in urine of rats after peroral administration of 3.76 uM/Kg of drug; format: ADME, organism-based; settings: in vivo, po
Rattus norvegicus [48] = experiment: Total electrolytic excretion of sodium in urine of rats after peroral administration of 113 uM/Kg of drug; format: ADME, organism-based; settings: in vivo, po

CC(C)CC/N=C(/NC1CCCCC1)N1CCOCC1
Excretion Na+ (Rattus norvegicus [1]): 1.12 m equiv | Excretion K+ (Rattus norvegicus [2]): 0.21 m equiv | Excretion Cl- (Rattus norvegicus [3]): 1.31 m equiv | Ratio (Rattus norvegicus [4]): 5.2 [Na+]/[K+] | Excretion Na+ (Rattus norvegicus [5]): 0.85 m equiv | V (Rattus norvegicus [6]): 8.4 mL | Excretion Cl- (Rattus norvegicus [7]): 0.96 m equiv | Ratio (Rattus norvegicus [8]): 2.7 [Na+]/[K+] | V (Rattus norvegicus [9]): 5.6 mL | V (Rattus norvegicus [10]): 6.6 mL | Ratio (Rattus norvegicus [11]): 3.9 [Na+]/[K+] | Excretion Na+ (Rattus norvegicus [12]): 1.28 m equiv | Excretion K+ (Rattus norvegicus [13]): 0.33 m equiv | Excretion Cl- (Rattus norvegicus [14]): 1.01 m equiv | Excretion K+ (Rattus norvegicus [15]): 0.31 m equiv

N=C(N)NC(=O)c1nc(Cl)c(N)nc1N [AMILORIDE]
Excretion Cl- (Rattus norvegicus [16]): 1.73 m equiv | Excretion Na+ (Rattus norvegicus [17]): 0.73 m equiv | Excretion K+ (Rattus norvegicus [18]): 0.07 m equiv | Excretion Na+ (Rattus norvegicus [19]): 1.33 m equiv | V (Rattus norvegicus [20]): 9.4 mL | Excretion Cl- (Rattus norvegicus [21]): 1.43 m equiv | Excretion Na+ (Canis familiaris [22]): 9.5 m equiv | Ratio (Canis familiaris [23]): 7.8 [Na+]/[K+] | Excretion K+ (Rattus norvegicus [24]): 0.17 m equiv | Ratio (Canis familiaris [25]): 38.8 [Na+]/[K+] | Excretion Na+ (Rattus norvegicus [26]): 1.65 m equiv | Excretion K+ (Rattus norvegicus [27]): 0.36 m equiv | Excretion Cl- (Canis familiaris [28]): 4.3 m equiv | V (Rattus norvegicus [29]): 12.6 mL | Ratio (Canis familiaris [30]): 30.8 [Na+]/[K+] | Excretion Na+ (Rattus norvegicus [31]): 2.17 m equiv | Excretion K+ (Rattus norvegicus [32]): 0.05 m equiv | Excretion Cl- (Rattus norvegicus [33]): 1.86 m equiv | V (Rattus norvegicus [34]): 9.1 mL | Ratio (Canis familiaris [35]): 2 [Na+]/[K+] | V (Rattus norvegicus [36]): 13.9 mL | V (Rattus norvegicus [37]): 7.2 mL | Excretion Cl- (Rattus norvegicus [38]): 0.78 m equiv | V (Canis familiaris [39]): 59 mL | Excretion Cl- (Rattus norvegicus [40]): 1.29 m equiv | Ratio (Canis familiaris [41]): 45.2 [Na+]/[K+] | V (Rattus norvegicus [42]): 4.8 mL | Excretion K+ (Canis familiaris [43]): 0.4 m equiv | Excretion Na+ (Rattus norvegicus [44]): 2.27 m equiv | Excretion K+ (Rattus norvegicus [45]): 0.05 m equiv | Excretion Cl- (Rattus norvegicus [46]): 1.14 m equiv | Excretion K+ (Rattus norvegicus [47]): 0.1 m equiv | Excretion Na+ (Rattus norvegicus [48]): 1.77 m equiv
